Assay [1] relates to methicillin-sensitive Staphylococcus aureus. Kind of assay: MIC by broth micro-dilution (CLSI), methicillin-sensitive S. aureus. The conditions noted are these: MSSA S. aureus ATCC29213. Type of assay: cell-based. (Dilution methods test growth across graded concentrations, often in twofold steps.)
The test system of assay [2] is carbapenem sensitive Escherichia coli. Kind of assay: MIC by broth micro-dilution (CLSI), carbapenem sensitive E. coli. Type of assay: cell-based.
The test system of assay [3] is carbapenemase producing K. pneumoniae. In words: MIC by broth micro-dilution (CLSI), carbapenemase producing K. pneumoniae. It counts as cell-based, Klebsiella pneumoniae.
Assay [4] concerns carbapenem sensitive Pseudomonas aeruginosa. Kind of assay: MIC by broth micro-dilution (CLSI), carbapenem sensitive P. aeruginosa. Type of assay: cell-based.
The mark [5] stands for this setting: Staphylococcus aureus, ATCC 29213 / MSSA, read-out: MIC.
Setting [6] is: Escherichia coli, ATCC25922, ESBL −ve E. coli ATCC25922, read-out: MIC.
The mark [7] stands for this setting: Klebsiella pneumoniae, ATCCBAA1705, KPC-2 K. pneumoniae ATCC BAA-1705, read-out: MIC.
Where [8] appears, read: Pseudomonas aeruginosa, ATCC27853, Meropenem susceptible P. aeruginosa ATCC27853, read-out: MIC.

Converted amounts (≈) assume the structure as drawn. Where two headings read alike, the source gives them in different places. A value given as a limit tells only on which side of the number the result lay.

Broadly, the MIC is the lowest concentration that inhibits growth of the organism. As to `C[C@@H](NC(=O)Cn1cnnn1)[C@H]1C(=O)N2C(C(=O)O)=C(S[C@@H]3CN[C@H](C(=O)N4CCC5(CCN5)CC4)C3)[C@H](C)[C@H]12` [Example 365, (4R,5S,6R)-3-((3S,5S)-5-(1,7-diazaspiro[3.5]nonane-7-carbonyl)pyrrolidin-3-ylthio)-6-((R)-1-(2-(1H-tetrazol-1-yl)acetamido)ethyl)-4-methyl-7-oxo-1-azabicyclo[3.2.0]hept-2-ene-2-carboxylic acid], the MIC came out at 4 µg/mL (≈ 6.97 µM) in assay [1] (setting [5]), 0.25 µg/mL (≈ 0.436 µM) in assay [2] (setting [6]), 2 µg/mL (≈ 3.49 µM) in assay [3] (setting [7]) and 2 µg/mL (≈ 3.49 µM) in assay [4] (setting [8]).

For the compound `C[C@@H](NC(=O)C(F)F)[C@H]1C(=O)N2C(C(=O)O)=C(S[C@@H]3CN[C@H](C(=O)N(C)Cc4cc(=O)c(O)cn4C)C3)[C@H](C)[C@H]12` [Example 243], the minimum inhibitory concentration (MIC) in assay [1] (setting [5]) is 32 µg/mL (≈ 54.8 µM); in assay [2] (setting [6]) it was 16 µg/mL (≈ 27.4 µM); in assay [3] (setting [7]) it was 32 µg/mL (≈ 54.8 µM); in assay [4] (setting [8]) it was greater than 128 µg/mL.

Turning to `CNCC(=O)N[C@H](C)[C@H]1C(=O)N2C(C(=O)O)=C(S[C@@H]3CN[C@H](CNC(=O)[C@H]4CC[C@@H](N)C4)C3)[C@H](C)[C@H]12` [Example 255], the MIC in assay [1] (setting [5]) was found to be 8 µg/mL (≈ 15.3 µM); in assay [2] (setting [6]), 4 µg/mL (≈ 7.65 µM); in assay [3] (setting [7]), 8 µg/mL (≈ 15.3 µM); in assay [4] (setting [8]) it was 32 µg/mL (≈ 61.2 µM).

As to `C[C@@H](NC(=O)Cn1cnnn1)[C@H]1C(=O)N2C(C(=O)O)=C(S[C@@H]3CN[C@H](CN4CC[C@@H](N)C4)C3)[C@H](C)[C@H]12` [Example 391], the MIC in assay [1] (setting [5]) amounted to 1 µg/mL (≈ 1.92 µM); in assay [2] (setting [6]) it was 0.5 µg/mL (≈ 0.962 µM); in assay [3] (setting [7]) it was 0.5 µg/mL (≈ 0.962 µM); in assay [4] (setting [8]) it was 4 µg/mL (≈ 7.7 µM).

For `C[C@@H](NC(=O)Cn1cnnn1)[C@H]1C(=O)N2C(C(=O)O)=C(S[C@@H]3CN[C@H](C(=O)N4CCN(C(=O)[C@@H](N)CN)CC4)C3)[C@H](C)[C@H]12` [Example 456, (4R,5S,6R)-6-((R)-1-(2-(1H-tetrazol-1-yl)acetamido)ethyl)-3-((3S,5S)-5-(4-((S)-2,3-diaminopropanoyl)piperazine-1-carbonyl)pyrrolidin-3-ylthio)-4-methyl-7-oxo-1-azabicyclo[3.2.0]hept-2-ene-2-carboxylic acid], the MIC in assay [1] (setting [5]) worked out at 2 µg/mL (≈ 3.23 µM); in assay [2] (setting [6]) it was 0.5 µg/mL (≈ 0.807 µM); in assay [3] (setting [7]), 2 µg/mL (≈ 3.23 µM); in assay [4] (setting [8]), 2 µg/mL (≈ 3.23 µM).

For `C[C@@H](NC(=O)C(F)F)[C@H]1C(=O)N2C(C(=O)O)=C(S[C@@H]3CN[C@H](CNS(=O)(=O)N4CC[C@@H](N)C4)C3)[C@H](C)[C@H]12` [Example 236], the minimum inhibitory concentration (MIC) is 2 µg/mL (≈ 3.53 µM) in assay [1] (setting [5]), 2 µg/mL (≈ 3.53 µM) in assay [2] (setting [6]), 4 µg/mL (≈ 7.06 µM) in assay [3] (setting [7]) and 128 µg/mL (≈ 226 µM) in assay [4] (setting [8]).

`C[C@@H](NC(=O)Cn1cnnn1)[C@H]1C(=O)N2C(C(=O)O)=C(S[C@@H]3CN[C@H](C(=O)N4CCC[C@H](N)C4)C3)[C@H](C)[C@H]12` [Example 341, (4R,5S,6R)-6-((R) - 1-(2-(1H-tetrazol-1-yl)acetamido)ethyl)-3-((3S,5S)-5-((S)-3-aminopiperidin-1-carbonyl)pyrrolidin-3-ylthio)-4-methyl-7-oxo-1-azabicycio[3.2.0]hept-2-ene-2-carboxylic acid]: the MIC in assay [1] (setting [5]) was 4 µg/mL (≈ 7.3 µM); in assay [2] (setting [6]) it was 1 µg/mL (≈ 1.83 µM); in assay [3] (setting [7]), 4 µg/mL (≈ 7.3 µM); in assay [4] (setting [8]) it was 8 µg/mL (≈ 14.6 µM).

Turning to `C[C@@H](NC(=O)Cn1cnnn1)[C@H]1C(=O)N2C(C(=O)O)=C(S[C@@H]3CN[C@H](C(=O)N4C[C@@H](N)[C@H](O)C4)C3)[C@H](C)[C@H]12` [Example 329, (4R,5S,6R)-6-((R) - 1-(2-(1H-tetrazol-1-yl)acetamido)ethyl)-3-((3S,5S)-5-((3R,4R)-3-amino-4-hydroxypyrrolidine-1-carbonyl)pyrrolidin-3-ylthio)-4-methyl-7-oxo-1-azabicyclo[3.2.0]hept-2-ene-2-carboxylic acid], the MIC in assay [1] (setting [5]) was 8 µg/mL (≈ 14.6 µM); in assay [2] (setting [6]) it was 0.25 µg/mL (≈ 0.455 µM); in assay [3] (setting [7]) it was 2 µg/mL (≈ 3.64 µM); in assay [4] (setting [8]), 8 µg/mL (≈ 14.6 µM).

In the case of `C[C@@H](NC(=O)Cn1cnnn1)[C@H]1C(=O)N2C(C(=O)O)=C(S[C@@H]3CN[C@H](C(=O)N4CC(C)(N)C4)C3)[C@H](C)[C@H]12` [Example 405, (4R,5S,6R)-6-((R)-1-(2-(1H-tetrazol-1-yl)acetamido)ethyl)-3-((3S,5S)-5-(3-amino-3-methylazetidine-1-carbonyl)pyrrolidin-3-ylthio)-4-methyl-7-oxo-1-azabicyclo[3.2.0]hept-2-ene-2-carboxylic acid], the MIC in assay [1] (setting [5]) is 4 µg/mL (≈ 7.5 µM); in assay [2] (setting [6]) it was 0.125 µg/mL (≈ 0.234 µM); in assay [3] (setting [7]), 2 µg/mL (≈ 3.75 µM); in assay [4] (setting [8]), 4 µg/mL (≈ 7.5 µM).

Turning to `C[C@@H](NC(=O)Cn1cnnn1)[C@H]1C(=O)N2C(C(=O)O)=C(S[C@@H]3CN[C@H](C(=O)N4C[C@@H](O)[C@H](NC(=N)N)C4)C3)[C@H](C)[C@H]12` [Example 544, (4R,5S,6R)-6-((R)-1-(2-(1H-tetrazol-1-yl)acetamido)ethyl)-3-((3S,5S)-5-((3R,4R)-3-guanidino-4-hydroxypyrrolidine-1-carbonyl)pyrrolidin-3-ylthio)-4-methyl-7-oxo-1-azabicyclo[3.2.0]hept-2-ene-2-carboxylic acid], the MIC in assay [1] (setting [5]) worked out at 1 µg/mL (≈ 1.69 µM); in assay [2] (setting [6]), 0.25 µg/mL (≈ 0.423 µM); in assay [3] (setting [7]), 0.5 µg/mL (≈ 0.845 µM); in assay [4] (setting [8]), 1 µg/mL (≈ 1.69 µM).

Take `C[C@@H](NC(=O)Cn1cnnn1)[C@H]1C(=O)N2C(C(=O)O)=C(S[C@@H]3CN[C@H](C(=O)N4CCC5CNCC5C4)C3)[C@H](C)[C@H]12` (single isomer, unassigned) [Example 534]: the MIC in assay [1] was found to be 2 µg/mL (≈ 3.49 µM); in assay [2] (ESBL −ve E. coli ATCC25922) it was 0.125 µg/mL (≈ 0.218 µM); in assay [3] (KPC-2 K. pneumoniae ATCC BAA-1705), 1 µg/mL (≈ 1.74 µM); in assay [4] (Meropenem susceptible P. aeruginosa ATCC27853) it was 1 µg/mL (≈ 1.74 µM).

Turning to `CNCC(=O)N[C@H](C)[C@H]1C(=O)N2C(C(=O)O)=C(S[C@@H]3CN[C@H](C(=O)N4CC5CC4CN5)C3)[C@H](C)[C@H]12` (some centres unmarked) [Example 290], the MIC came out at 32 µg/mL (≈ 63.2 µM) in assay [1] (setting [5]), 2 µg/mL (≈ 3.95 µM) in assay [2] (setting [6]), 4 µg/mL (≈ 7.9 µM) in assay [3] (setting [7]) and 8 µg/mL (≈ 15.8 µM) in assay [4] (setting [8]).

Take `C[C@@H](NC(=O)CSc1nnnn1C)[C@H]1C(=O)N2C(C(=O)O)=C(S[C@@H]3CN[C@H](C(=O)N(C)C)C3)[C@H](C)[C@H]12` [Example 321, (4R,5S,6R)-3-((3S,5S)-5-(dimethylcirbamoyl)pyrrolidin-3-ylthio)-4-methyl-6-((R) - 1-(2-(1-methyl-1H-tetrazol-5-ylthio)acetamido)ethyl)-7-oxo-1-azabicyclo[3.2.0]hept-2-ene-2-carboxylic acid]: the MIC is 2 µg/mL (≈ 3.71 µM) in assay [1] (setting [5]), 1 µg/mL (≈ 1.86 µM) in assay [2] (setting [6]), 8 µg/mL (≈ 14.9 µM) in assay [3] (setting [7]) and greater than 128 µg/mL in assay [4] (setting [8]).

`C[C@@H](NC(=O)Cn1cnnn1)[C@H]1C(=O)N2C(C(=O)O)=C(S[C@@H]3CN[C@H](C(=O)N4CCC5(CCNC5)CC4)C3)[C@H](C)[C@H]12` [Example 435, (4R,5S,6R)-6-((R)-1-(2-(1H-tetrazol-1-yl)acetamido)ethyl)-3-((3S,5S)-5-(2,8-diazaspiro[4.5]decane-8-carbonyl)pyrrolidin-3-ylthio)-4-methyl-7-oxo-1-azabicyclo[3.2.0]hept-2-ene-2-carboxylic acid]: the MIC amounted to 2 µg/mL (≈ 3.4 µM) in assay [1] (setting [5]), 0.25 µg/mL (≈ 0.425 µM) in assay [2] (setting [6]), 1 µg/mL (≈ 1.7 µM) in assay [3] (setting [7]) and 1 µg/mL (≈ 1.7 µM) in assay [4] (setting [8]).

For the origin of these results see patent US11180504B2 (ORCHID PHARMA LTD., priority 2016, dated 2021).
